Experimental data taken from patent US20250221953A1 (The University of Chicago, priority 2022, published 2025).
Where a name gives a salt, the structure may show the parent alone.

What follows are compounds tested on Jurkat T cells. Settings: IL-2 production level in treated group compared to control group; 48 hours treatment, then anti-CD3/anti-CD28 12 hours.
Format: cell-based, human
Source text: Two preliminary screens were designed and performed.
To construct “blood chemical compound library for cell-based screening purposes, components such as antibodies that are difficult to distinguish due to a wide variety, and some supplements that only function at a whole organism level including fish oils and herbs were excluded. Physiological ranges of serum levels of individual blood chemicals are available in the human metabolome database (https://hmdb.ca/) and applied in the experimental design. For first screen 1a, Jurkat T cells were treated with blood chemical library for 48 hours and then activated with 2.5 μg/mL anti-CD3 and 0.5 μg/mL anti-CD28 antibodies for another 12 hours, followed by measurement of IL-2 level in medium supernatant using ELISA kit (Biolegend). For first screen 1b, 1×10^5 PD-1^+ Jurkat T cells were co-cultured with 2×10^4 H596 (PD-L1^+) cells in a well of 96-well plate for 60 hours, and then activated with 2.5 μg/mL anti-CD3 and 0.5 μg/mL anti-CD28 antibodies for another 12 hours, followed by measurement of IL-2 level in medium supernatant using ELISA kit. Please also refer to Resources Table and Table 1-2 for more details.

Row | Structure (SMILES) | Relative changed percentage (%)
1 | [Cl][Cd][Cl] [CADMIUM CIILORIDE/cadmium, CADMIUM CIILORIDE] | 32.11
2 | C=C1CC[C@H](O)C/C1=C/C=C1\CCC[C@]2(C)[C@@H]([C@H](C)CCCC(C)C)CC[C@@H]12 [CHOLECALCIFEROL CRYSTALLINE, CHOLECALCIFEROL] | 25.45
3 | CC(C)CCC[C@@H](C)[C@H]1CC[C@H]2[C@@H]3CC=C4C[C@@H](O)CC[C@]4(C)[C@H]3CC[C@]12C [CHOLESTEROL] | −31.89
4 | O=S(=O)([O-])[O-].[Cu+2] [COPPER(II) SULFATE, ANHYDROUS,/copper, COPPER(II) SULFATE, ANHYDROUS] | 51.65
5 | C[C@]12CCC(=O)C=C1CC[C@@H]1[C@@H]2C(=O)C[C@@]2(C)[C@H]1CC[C@]2(O)C(=O)CO [CORTISONE] | −12.29
6 | Nc1cc[nH]c(=O)n1 [CYTOSINE] | 74.6228
7 | O=C(/C=C/c1ccc(O)c(O)c1)OCCc1ccccc1 [Caffeic acid phenethyl ester] | 43.85
8 | Cn1c(=O)c2c(ncn2C)n(C)c1=O [Caffeine] | 170.0384
9 | O=C([O-])[O-].[Ca+2] [Calcium Carbonate] | −8.75
10 | O=C([O-])CC(O)(CC(=O)[O-])C(=O)[O-].O=C([O-])CC(O)(CC(=O)[O-])C(=O)[O-].[Ca+2].[Ca+2].[Ca+2] [Calcium citrate] | −14.58
11 | O=C([O-])[C@@H](O)[C@@H](O)[C@H](O)[C@@H](O)C(=O)[O-].[Ca+2] [Calcium d-glucarate] | −12.14
12 | COc1cc(CNC(=O)CCCC/C=C/C(C)C)ccc1O [Capsaicin] | 1.661
13 | C[N+](C)(C)CCO.[Cl-] [Choline Chloride] | −41.11
14 | [Cl][Cr]([Cl])[Cl] [Chromium Chloride] | −35.28
15 | O=C(O)CC(O)(CC(=O)O)C(=O)O [Citric Acid] | −36.8
16 | COC1=C(OC)C(=O)C(C/C=C(\C)CC/C=C(\C)CC/C=C(\C)CC/C=C(\C)CC/C=C(\C)CC/C=C(\C)CC/C=C(\C)CC/C=C(\C)CC/C=C(\C)CCC=C(C)C)=C(C)C1=O [CoQ-10] | 26.54
17 | CCCCC[C@H](O)CC(=O)CCc1ccc(O)c(OC)c1 [Compound 6-gingerol, 6-gingerol] | 42.62
18 | O=S(=O)([O-])[O-].[Cu+2] [Copper sulfate] | −26.32
19 | CN(CC(=O)O)C(=N)N [Creatine] | −40.99
20 | O=C(CO)[C@@H](O)[C@H](O)[C@H](O)CO [D(−)FRUCTOSE] | −25.52
21 | O=C[C@H](O)[C@@H](O)[C@H](O)[C@H](O)C(=O)O [D-Glucuronic Acid] | −45.8
22 | O.OC[C@H]1O[C@@H](O[C@H]2[C@H](O)[C@@H](O)C(O)O[C@@H]2CO)[C@H](O)[C@@H](O)[C@H]1O (stereo partly drawn) [D-LACTOSE MONOHYDRATE] | 22.47
23 | N[C@H]1C(O)O[C@H](CO)[C@@H](O)[C@@H]1OS(=O)(=O)O (stereo partly drawn) [D-glucosamine 3-sulfate] | 9.801
24 | O=P([O-])([O-])O.[K+].[K+] [Dipotassium Phosphate] | −5.393

Row | Structure (SMILES) | Relative changed percentage (%)
25 | CC/C=C\C/C=C\C/C=C\C/C=C\C/C=C\C/C=C\CCC(=O)O [Docosahexaenoic Acid] | −29.89
26 | CC/C=C\C/C=C\C/C=C\C/C=C\C/C=C\CCCCCC(=O)O [Docosapentaenoic acid] | −19.39
27 | C=C1CC[C@H](O)C/C1=C/C=C1\CCC[C@]2(C)[C@@H]([C@H](C)/C=C/[C@H](C)C(C)C)CC[C@@H]12 [ERGOCALCIFEROL] | 16.01
28 | C[C@]12CC[C@@H]3c4ccc(O)cc4CC[C@H]3[C@@H]1C[C@@H](O)[C@@H]2O [ESTRIOL] | 2.789
29 | C[C@]12CC[C@@H]3c4ccc(O)cc4CC[C@H]3[C@@H]1CCC2=O [ESTRONE] | 25.0199
30 | CCCCCCCC/C=C\CCCCCCCCCCCC(=O)O [Erucic acid] | 10.71
31 | NS(=O)(=O)c1cc(C(=O)O)c(NCc2ccco2)cc1Cl [FUROSEMIDE/LASIX, FUROSEMIDE, reference compound] | 29.01
32 | O=C([O-])/C=C/C(=O)[O-].[Fe+2] [Ferrous Fumarate] | 6.278
33 | OCC(O)CO [GLYCEROL MOLECULAR BIOLOGY REAGENT, GLYCEROL] | 39.3621
34 | Cl.N=C(N)N [GUANIDINE IIYDROCIILORIDE,, GUANIDINE IIYDROCIILORIDE] | 41.83
35 | Nc1nc2c(ncn2[C@@H]2O[C@@H]3COP(=O)([O-])O[C@H]3[C@H]2O)c(=O)[nH]1.[Na+] [GUANOSINE 3′:5′-CYCLIC MONOPIIOSPIIATE SODIUM] | 8.266
36 | CCCCC/C=C\C/C=C\C/C=C\CCCCC(=O)O [Gamma linolenic acid] | 9.058
37 | NCC(=O)O [Glycine] | −8.966
38 | NCCc1c[nH]cn1 [HISTAMINE FREE BASE CRYSTALLINE, HISTAMINE FREE BASE] | −3.594
39 | OC[C@H]1O[C@@H](Oc2c[nH]c3ccccc23)[C@H](O)[C@@H](O)[C@@H]1O [INDOXYL beta-D-GLUCOSIDE] | 30.46
40 | O[C@H]1[C@H](O)[C@@H](O)[C@H](O)[C@@H](O)[C@H]1O [Inositol] | 15.38
41 | C[C@H](O)C(=O)[O-].[Na+] [L(+)LACTIC ACID SODIUM] | 5.082
42 | C[N+](C)(C)[C@@H](Cc1c[nH]c(=S)[nH]1)C(=O)[O-] [L-(+)-ERGOTHIONEINE INNER SALT] | −10.39
43 | O=C1O[C@H]([C@@H](O)CO)C(O)=C1O [L-ASCORBIC ACID] | 14.49
44 | N=C(N)NCCC[C@H](N)C(=O)O [L-Arginine] | 10.75
45 | NC(=O)C[C@H](N)C(=O)O [L-Asparagine] | 28.4787
46 | N[C@@H](CC(=O)O)C(=O)O [L-Aspartic Acid] | −9.615
47 | N[C@@H](CC(=O)[O-])C(=O)[O-].[K+].[K+] [L-Aspartic acid potassium salt] | 4.421
48 | NC(=O)NCCC[C@H](N)C(=O)O [L-CITRULLINE] | −3.384

Row | Structure (SMILES) | Relative changed percentage (%)
49 | N[C@@H](CS)C(=O)O [L-CYSTEINE BIOULTRA,, L-CYSTEINE] | −22.74
50 | N[C@@H](CS)C(=O)O [L-Cysteine] | 32.82
51 | N[C@@H](CSSC[C@H](N)C(=O)O)C(=O)O [L-Cystine] | −19.73
52 | N[C@@H](CCC(=O)N[C@@H](CS)C(=O)NCC(=O)O)C(=O)O [L-GLUTATHIONE REDUCED] | 48.28
53 | N[C@@H](CCC(=O)O)C(=O)O [L-Glutamic Acid] | 2.2718
54 | NC(=O)CC[C@H](N)C(=O)O [L-Glutamine] | 25.52
55 | Cl.N[C@@H](Cc1c[nH]cn1)C(=O)O [L-Histidine hydrochloride] | 3.531
56 | CC[C@H](C)[C@H](N)C(=O)O [L-Isoleucine] | −8.642
57 | CC(C)C[C@H](N)C(=O)O [L-Leucine] | −7.16
58 | Cl.NCCCC[C@H](N)C(=O)O [L-Lysine hydrochloride] | −1.605
59 | CSCC[C@H](N)C(=O)O [L-Methionine] | −11.84
60 | Cl.NCCC[C@H](N)C(=O)O [L-ORNITHINE MONOHYDROCHLORIDE] | 8.054
61 | N[C@@H](Cc1ccccc1)C(=O)O [L-Phenylalanine] | −17.2378
62 | O=C(O)[C@@H]1CCCN1 [L-Proline] | −3.935
63 | N[C@@H](CO)C(=O)O [L-Serine] | −22.11
64 | N[C@@H](Cc1cc(I)c(Oc2cc(I)c(O)c(I)c2)c(I)c1)C(=O)O [L-THYROXINE] | 18.7243
65 | C[C@@H](O)[C@H](N)C(=O)O [L-Threonine] | −6.543
66 | N[C@@H](Cc1c[nH]c2ccccc12)C(=O)O [L-Tryptophan] | 1.358
67 | N[C@@H](Cc1ccc(O)cc1)C(=O)O [L-Tyrosine] | −13.45
68 | CC(C)[C@H](N)C(=O)O [L-Valine] | 5.296
69 | N[C@@H](CCC(=O)N[C@@H](CS)C(=O)NCC(=O)O)C(=O)O [L-glutathione] | 13.46
70 | [S]=[Pb] [LEAD(II) SULFIDE] | −13.63
71 | CC(=O)CC(=O)[O-].[Li+] [LITHIUM ACETOACETATE/Acetoacetic acid, LITHIUM ACETOACETATE] | −21.48

Same assay, conditions: IL-2 production level in treated group compared to control group; 48 hours treatment, then anti-CD3/anti-CD28 12 hours; Hydrochloride

Row | Structure (SMILES) | Relative changed percentage (%)
72 | Cl.N[C@H]1C(O)O[C@H](CO)[C@@H](O)[C@@H]1O (stereo partly drawn) [D-(+)-Glucosamine Hydrochloride] | −38.23
73 | Cl.N[C@H]1C(O)O[C@H](CO)[C@@H](O)[C@@H]1O (stereo partly shown) [Glucosamine Hydrochloride] | −6.979
